What was measured:
[1] = tested on: murine (RAW264) macrophage cell lines; assay: in vitro cell culture test: available nitric oxide (nitrite+nitrate, Griess) in activated macrophages; assay type: cell-based; conditions: up to 100 μM
Experimental: In the in vitro cell culture tests, murine (RAW264) macrophage cell lines, which can be induced to produce nitric oxide, were seeded, 10^6 cells/well, onto 24 well culture plates of 2 ml volume per well, in Eagles modified minimal essential medium (MEM) plus 10% foetal bovine serum without phenol red.
The cells were activated to produce nitric oxide, with 10 μg/ml lipopolysaccharide and 100 units/ml interferon γ for 18 hours. Concurrently, test compounds made up in MEM were added at non-cytotoxic concentrations. […]
Background nitric oxide was assessed by measurement of nitrate and nitrite in cells which were not activated. […]
Nitric oxide was determined by measurement of nitrate and nitrite in the cell supernatant These anions are the stable end-products of reactions of NO in solution. […] Nitrite was determined using the Griess reaction in which nitrite reacts with 1% sulphanilamide in 5% H3PO4/0.1% naphthylethylenediamine dihydrochloride to form a chromophore absorbing at 540 nm Nitrate was determined by reducing nitrate to nitrite with a bacterial nitrate reductase from Pseudomonas oleovorans and then measuring nitrite with the Griess reaction. […] The effect of test compounds on available nitric oxide (measured as nitrite+nitrate) was determined. […]

[2] = tested on: rat tail artery; assay: ex vivo rat tail artery perfusion test (vasoconstriction by removal of endogenous NO); design: species or system Wistar rats; conditions: for vasoconstriction on application of test compound (in words): 10 μM and 100 μM (Example 26 also 1000 μM); for reversibility of vasoconstriction: washout with Krebs solution
Description: In the ex vivo tests, segments of rat tail artery (0.8-1.5 cm) were dissected free from normotensive adult Wistar rats. The arteries were internally perfused with Krebs solution (mM: NaCl 118, KCl 4.7, NaHCO3, 25, NaH2PO4 1.15, CaCl2 2.5, MgCl2 1.1, glucose 5.6 and gassed with 95% O2/5% CO2 to maintain a pH of 7.4) in a constant flow perfusion apparatus. A differential pressure transducer located upstream of the vessel detected changes in back pressure. The rat tail artery preparation was pre-contracted with 6.5 μM phenylephrine to give a physiologically normal pressure of 100-120 mm Hg. The pre-contracted vessels were then perfused with the test compound. The arteries were perfused with Krebs solution between applications of test compound to wash out the test compound.
Pressure changes in the system served to indicate artery vasoconstriction. The vasoconstriction is a direct result of the removal of endogenous nitric oxide (edrf) from the endothelial cells of the rat tail artery.

[3] = in vitro NO uptake test (manometric pressure decrease; IR spectrum of freeze-dried product); conditions: aqueous solution under argon, 20-24° C., NO gas in headspace, pressure recorded over one hour
Experimental: The resulting solution was placed in a three-necked pear-shaped flask and stirred by a magnetic stirrer at constant speed of 1000 rpm, at a constant temperature in the range 20° C.-24° C. A manometer was attached to the flask, and purified, dried nitric oxide gas (known volume in the range 3-5 cm^3) was introduced via a septum, using a gas syringe, at atmospheric pressure into the headspace above the reaction solution. The pressure within the flask was recorded periodically over a period of one hour.
A control experiment was carried out according to the above but without any complex present.
On completion of each in vitro test, the reaction solution was freeze-dried. An infrared spectrum of the freeze-dried product provided information on metal-NO bond formation.

| Compound | dose dependence of reduction of available nitric oxide [1] | vasoconstriction on application of test compound (in words) [2] | % Vasoconstriction ([2]; 10 μM, artery pre-contracted with 6.5 μM phenylephrine) | reversibility of vasoconstriction [2] | pressure decrease indicating binding of NO to the metal compound [3] |
| --- | --- | --- | --- | --- | --- |
| O.O.O=C([O-])CN(CCN(CC(=O)[O-])CC(=O)O)CC(=O)[O-].[Cl-].[K+].[Ru+3] [Example 1, K[Ru(Hedta)Cl]2H2O] | reduced in a dose-dependent fashion |  |  |  |  |
| [Ru(NH3)5Cl]Cl2 [Example 15] |  | dose-dependent vasoconstriction | 16% | reversible by washout with Krebs solution |  |
| CC(=O)[O-].CC(=O)[O-].CC(=O)[O-].CC(=O)[O-].[Cl-].[Ru+3].[Ru+3] [Example 14, [Ru2(OAc)4]Cl] |  | dose-dependent vasoconstriction |  | reversible by washout with Krebs solution |  |
| O.O=C([O-])CN(CCO)CCN(CC(=O)[O-])CC(=O)[O-].[Cl-].[K+].[Ru+3] [Example 3, K[Ru(hedtra)Cl]H2O] |  | dose-dependent vasoconstriction |  | reversible by washout with Krebs solution |  |
| Cc1occc(=O)c1[O-].Cc1occc(=O)c1[O-].Cc1occc(=O)c1[O-].[Ru+3] [Example 26, [Ru(maltol)3]] |  | dose-dependent vasoconstriction |  | reversible by washout with Krebs solution |  |
| O.O=C([O-])CN(CCN(CC(=O)[O-])CC(=O)O)CCN(CC(=O)[O-])CC(=O)O.[Cl-].[K+].[Ru+3] [Example 8, K[Ru(H2dtpa)Cl]H2O] |  |  |  |  | pressure decrease indicated binding of NO |
| CC(=O)C=C(C)[O-].O=C([O-])CN(CCN(CC(=O)[O-])CC(=O)O)CC(=O)O.[Ru+3] [Example 2, [Ru(H2edta)(acac)]] |  | dose-dependent vasoconstriction |  | reversible by washout with Krebs solution |  |
| O.O=C([O-])CN(CC(=O)[O-])CC(=O)O.O=C([O-])CN(CC(=O)[O-])CC(=O)O.O=C([O-])CN(CC(=O)[O-])CC(=O)O.O=C([O-])CN(CC(=O)[O-])CC(=O)O.[K+].[K+].[Ru+3].[Ru+3] [Example 7, K[Ru(Hnta)2]½H2O] |  |  |  |  | pressure decrease indicated binding of NO |

Source: patent US6417182B1, “Pharmaceutical compositions comprising metal complexes” (AnorMED Inc., priority 1993, dated 2002)
